Experimental data reported in ChEMBL document CHEMBL5625249, “Optimization and antifungal activity of quinoline derivatives linked to chalcone moiety combined with FLC against Candida albicans” (Eur J Med Chem, 2023).

Experiments:
Format in all cases: functional
Candida albicans [1] = assay: Synergistic antifungal activity against Clinical FLC-resistant Candida albicans 23 measured after 24 hrs in presence of fluconazole by microdilution method
Candida albicans [2] = assay: Synergistic antifungal activity against FLC-sensitive Candida albicans SC5314 measured after 24 hrs in presence of fluconazole by microdilution method
Candida albicans [3] = assay: Synergistic antifungal activity against FLC-sensitive Candida albicans SC5314 assessed as fractional inhibitory concentration index measured after 24 hrs in presence of fluconazole by microdilution method
Candida albicans [4] = assay: Antifungal activity against Clinical FLC-resistant Candida albicans 23 measured after 24 hrs by microdilution method
Candida albicans [5] = assay: Antifungal activity against FLC-sensitive Candida albicans SC5314 measured after 24 hrs by microdilution method
Candida albicans [6] = assay: Synergistic antifungal activity against Clinical FLC-resistant Candida albicans 23 assessed as fractional inhibitory concentration index measured after 24 hrs in presence of fluconazole by microdilution method

Row | Structure (SMILES) | MIC80 (Candida albicans [1]) [µg/mL] | MIC80 (Candida albicans [2]) [µg/mL] | fractional inhibitory concentration index (FICI) (Candida albicans [3]) | MIC80 (Candida albicans [4]) [µg/mL] | MIC80 (Candida albicans [5]) [µg/mL] | fractional inhibitory concentration index (FICI) (Candida albicans [6])
1 | CN1CCN(c2nc3ccccc3cc2/C=C/C(=O)c2ccc(N3CCN(S(=O)(=O)c4ccc([N+](=O)[O-])cc4)CC3)cc2)CC1 | > 40 | 17.8 | 3.3 | > 40 | > 40 | –
2 | CN1CCN(c2nc3ccccc3cc2/C=C/C(=O)c2ccc(N3CCN(S(=O)(=O)c4ccc(F)cc4)CC3)cc2)CC1 | 1.14 | 18.3 | 3.39 | > 40 | > 40 | 0.03
3 | C=CC(=O)N1CCN(c2ccc(C(=O)/C=C/c3cc4ccccc4nc3N3CCN(C)CC3)cc2)CC1 | 26.4 | 4.11 | 0.76 | > 40 | > 40 | 0.66
4 | Cc1ccc(S(=O)(=O)N2CCN(c3ccc(C(=O)/C=C/c4cc5ccccc5nc4N4CCN(C)CC4)cc3)CC2)cc1 | 8.08 | > 40 | – | > 40 | > 40 | 0.2
5 | COC(=O)CN1CCN(c2ccc(C(=O)/C=C/c3cc4ccccc4nc3N3CCN(C)CC3)cc2)CC1 | > 40 | 14.1 | 2.6 | > 40 | > 40 | –
6 | COc1ccc(C(=O)CN2CCN(c3ccc(C(=O)/C=C/c4cc5ccccc5nc4N4CCN(C)CC4)cc3)CC2)cc1OC | 28.1 | 5.5 | 1.01 | > 40 | > 40 | 0.7
7 | CN1CCN(c2nc3ccccc3cc2/C=C/C(=O)c2ccc(N3CCNCC3)cc2)CC1 | 24 | 2.56 | 0.47 | > 40 | > 40 | 0.6
8 | CN1CCN(c2nc3ccccc3cc2/C=C/C(=O)c2ccc(N3CCN(S(C)(=O)=O)CC3)cc2)CC1 | 22.5 | 28.1 | 5.2 | > 40 | > 40 | 0.56
9 | C=C(C)C(=O)N1CCN(c2ccc(C(=O)/C=C/c3cc4ccccc4nc3N3CCN(C)CC3)cc2)CC1 | 4.93 | 3.71 | 0.69 | > 40 | > 40 | 0.12
10 | CN1CCN(c2nc3ccccc3cc2/C=C/C(=O)c2ccc(N3CCN(Cc4ccc(C#N)cc4)CC3)cc2)CC1 | 5.4 | 4.73 | 0.88 | > 40 | > 40 | 0.14
11 | CN1CCN(c2nc3ccccc3cc2/C=C/C(=O)c2ccc(N3CCN(S(=O)(=O)c4ccc(C(F)(F)F)cc4)CC3)cc2)CC1 | 1.15 | > 40 | – | > 40 | > 40 | 0.03
12 | CN1CCN(c2nc3ccccc3cc2/C=C/C(=O)c2ccc(N3CCN(CC(=O)c4ccc(F)cc4)CC3)cc2)CC1 | > 40 | 6.74 | 1.25 | > 40 | > 40 | –
13 | CN1CCN(c2nc3ccccc3cc2/C=C/C(=O)c2ccc(N3CCN(C(=O)/C=C/c4ccccc4)CC3)cc2)CC1 | 5.83 | > 40 | – | > 40 | > 40 | 0.15
14 | CN1CCN(c2nc3ccccc3cc2/C=C/C(=O)c2ccc(N3CCN(C(=O)CCCl)CC3)cc2)CC1 | > 40 | > 40 | – | > 40 | > 40 | –
15 | CC(=O)N1CCN(c2ccc(C(=O)/C=C/c3cc4ccccc4nc3N3CCN(C)CC3)cc2)CC1 | > 40 | > 40 | – | > 40 | > 40 | –
